Data: patent US6777564B2, “Anthraquinone compound” (Industrial Technology Research Institute, priority 2001, dated 2004)
In brackets after ≈: the same amount, converted by molar mass. Read-outs that look alike come from different tables or passages of the source.

What was measured:
Lu1: human lung cell = test: anti-cancer activity test (cytotoxicity), Lu1; format: cell-based; conditions: Lu1 cells; for IC50: Homo sapiens
BC-1: human breast cell = test: anti-cancer activity test (cytotoxicity), BC 1; format: cell-based; conditions: BC 1 cells; for IC50: Homo sapiens, BC1
[1] = test system: Mel2: human melanoma cell; test: anti-cancer activity test (cytotoxicity), Mel2; format: cell-based; conditions: Mel2 cells; for IC50: Homo sapiens
[2] = test system: KB: human oral epidormaid Carcinama cell; test: anti-cancer activity test (cytotoxicity), KB; format: cell-based; conditions: KB cells; for IC50: Homo sapiens
Experimental: (§1) The compounds were further screened on 60 human cancer cell lines by Developmental Therapeutics Program Human Tumor Cell Line Screen set up by the National Cancer Institute of the U. S. A. The screening procedures are described briefly hereinafter. Cell suspensions that were diluted according to the particular cell type and the expected target cell density (5000-40,000 cells per well based on cell growth characteristics) were added by pipet (100 μL) into 96-well microtiterplates. Inoculates were allowed a preincubation period of 24 hours at 37° C. for stabilization. Dilutions at twice the intended test concentration were added in 100 μL aliquots to the microtiter plate wells at time zero. Usually, test compounds were evaluated at five 10-fold dilutions. In routine testing, the highest well concentration was 10^−4 M, but for the standard agents the highest well concentration used depended on the agent. Incubations lasted for 48 hours in 5% CO2 atmosphere and 100% humidity. The cells were assayed by using the sulforhodamine B assay. A plate reader was used to read the optical densities, and a microcomputer processed the optical densities into the special concentration parameters. The results of these tests with representative compounds of the present invention appear in Table 1 and 2

[3] = test system: ZR-75-1: human breast cell; test: anti-cancer activity test (cytotoxicity), ZR-75-1; format: cell-based; conditions: ZR-75-1 cells; for IC50: Homo sapiens
Col2: human colon cell = test: anti-cancer activity test (cytotoxicity), Col2; format: cell-based; conditions: Col2 cells; for IC50: Homo sapiens
[4] = test system: P-388: mouse lymphaid Macrophage cell; test: anti-cancer activity test (cytotoxicity), P-388; format: cell-based; conditions: P-388 cells; for IC50: Mus musculus, P388
U373: human glioma cell = test: anti-cancer activity test (cytotoxicity), U373; format: cell-based; conditions: U373 cells; for IC50: Homo sapiens, U373 MG
HIV-1 RT(p66) = target: T1, HIV-1 RT(p66) (Human immunodeficiency virus type 1 group M subtype B, UniProt P04585); test: anti-virus activity test, HIV-1 RT(p66) inhibition; format: biochemical; conditions: for activity inhibition (%) / inhibition at 200 µg/mL: at 200 μg/ml; for activity inhibition (%) / IC50 / inhibition at 200 µg/mL: HIV-1 RT(p66); for activity inhibition / anti-virus ability (in words): at the concentration of 200 μg/ml
T1 construct: 1-10 at 200 μg/ml to HIV-1 RT(p66)

[5] = test system: A431: human squamous cell; test: anti-cancer activity test (cytotoxicity), A431; format: cell-based; conditions: A431 cells; for IC50: Homo sapiens, A-431
[6] = test system: HT-1088: human fibrosarcoma cell; test: anti-cancer activity test (cytotoxicity), HT; format: cell-based; conditions: HT cells; for IC50: Homo sapiens
[7] = test system: LNCaP: human prostate cell; test: anti-cancer activity test (cytotoxicity), LNCaP; format: cell-based; conditions: LNCaP cells; for IC50: Homo sapiens
[8] = test system: KB-V: drug resisteant KB cell; test: anti-cancer activity test (cytotoxicity), KB-V; format: cell-based, human; conditions: KB-V cells; for IC50: Homo sapiens
human cancer cell lines = test: anti-cancer activity test, overall over the cell line panel; format: cell-based; conditions: summary of Table 1
Experimental: as §1

[9] = read-out: IC50 (μg/ml) (converted)

Row | Compound | IC50 Lu1 (Lu1: human lung cell) [µg/mL] | IC50 BC 1 (BC-1: human breast cell) [µg/mL] | IC50 Mel2 [1] [µg/mL] | IC50 KB [2] [µg/mL] | activity inhibition / anti-virus ability (in words) (HIV-1 RT(p66)) | IC50 (Lu1: human lung cell) [µg/mL] | IC50 (BC-1: human breast cell) [µg/mL] | IC50 [1] [µg/mL] | IC50 [2] [µg/mL] | IC50 [3] [µg/mL] | IC50 (Col2: human colon cell) [µg/mL] | IC50 [4] [µg/mL] | IC50 (U373: human glioma cell) [µg/mL] | inhibition at 200 µg/mL (HIV-1 RT(p66)) [%] | IC50 [5] [µg/mL] | cytotoxic activity to cancer cell lines (in words) (human cancer cell lines) | IC50 [6] [µg/mL] | IC50 [7] [µg/mL] | IC50 ([8]; with vinblastine (+VLB)) [µg/mL] | IC50 ([8]; without vinblastine (−VLB)) [µg/mL] | further results
1 | 1-benzyl carbamidoacetamidoanthraquinone [Example 1] | >20 | >20 | >20 | >20 | anti-virus ability but not so strong as the others | – | – | – | – | – | – | – | – | – | – | – | – | – | – | – | IC50 ZR-75-1 [3]: >20 µg/mL; IC50 Col2 (Col2: human colon cell): >20 µg/mL; IC50 P-388 [4]: >5 µg/mL; IC50 U373 (U373: human glioma cell): >20 µg/mL; activity inhibition (%) (HIV-1 RT(p66)): 47.0%; IC50 A431 [5]: >20 µg/mL; IC50 HT [6]: 13.9 µg/mL; IC50 LNCaP [7]: 14.7 µg/mL; IC50 KB-V (+VLB) ([8]; with vinblastine (+VLB)): 3.8 µg/mL; IC50 KB-V (−VLB) ([8]; without vinblastine (−VLB)): >20 µg/mL
2 | 2-Benzyl Carbamidoacetamidoanthraquinone [Example 9] | 9.6 | 6.4 | 15.1 | 19.2 | anti-virus ability but not so strong as the others | – | – | – | – | – | – | – | – | – | – | – | – | – | – | – | IC50 ZR-75-1 [3]: 6.4 µg/mL; IC50 Col2 (Col2: human colon cell): 9.6 µg/mL; IC50 P-388 [4]: >5 µg/mL; IC50 U373 (U373: human glioma cell): 4.7 µg/mL; activity inhibition (%) (HIV-1 RT(p66)): 53.4%; IC50 A431 [5]: 1.7 µg/mL; IC50 HT [6]: 8.3 µg/mL; IC50 LNCaP [7]: >20 µg/mL; IC50 KB-V (+VLB) ([8]; with vinblastine (+VLB)): 1.4 µg/mL; IC50 KB-V (−VLB) ([8]; without vinblastine (−VLB)): >20 µg/mL
3 | 4-amino-1-benzyl Carbamidoacetamidoanthraquinone [Example 5] | >20 | >20 | >20 | >20 | anti-virus ability but not so strong as the others | – | – | – | – | – | – | – | – | – | – | – | – | – | – | – | IC50 ZR-75-1 [3]: >20 µg/mL; IC50 Col2 (Col2: human colon cell): >20 µg/mL; IC50 P-388 [4]: >5 µg/mL; IC50 U373 (U373: human glioma cell): >20 µg/mL; activity inhibition (%) (HIV-1 RT(p66)): 23.0%; IC50 A431 [5]: >20 µg/mL; IC50 HT [6]: >20 µg/mL; IC50 LNCaP [7]: >20 µg/mL; IC50 KB-V (+VLB) ([8]; with vinblastine (+VLB)): 2.9 µg/mL; IC50 KB-V (−VLB) ([8]; without vinblastine (−VLB)): >20 µg/mL
4 | N=C(N)NCC(=O)Nc1ccc(N)c2c1C(=O)c1ccccc1C2=O [Example 2, 4-amino-1-guanido acetamidoanthraquinone] | – | – | – | – | excellent effect on activity inhibition | 3.1 (≈ 9.19 µM) | 1.6 (≈ 4.74 µM) | 4.4 (≈ 13 µM) | 1.2 (≈ 3.56 µM) | 3.4 (≈ 10.1 µM) | 4.2 (≈ 12.5 µM) | > 5 | 0.6 (≈ 1.78 µM) | 99.5 | 0.4 (≈ 1.19 µM) | more effective to most cancer cell lines | 2 (≈ 5.93 µM) | 4.1 (≈ 12.2 µM) | 16 (≈ 47.4 µM) | > 20 | IC50 (HIV-1 RT(p66); [9]): 25.8 µM
5 | N=C(N)NCC(=O)Nc1cccc2c1C(=O)c1cccc(N)c1C2=O [Example 3, 5-amino-1-guanido acetamidoanthraquinone] | – | – | – | – | excellent effect on activity inhibition | 9.3 (≈ 27.6 µM) | 3 (≈ 8.89 µM) | 12 (≈ 35.6 µM) | 4.2 (≈ 12.5 µM) | 1.7 (≈ 5.04 µM) | 4.7 (≈ 13.9 µM) | > 5 | 1 (≈ 2.96 µM) | 99.6 | 0.2 (≈ 0.593 µM) | more effective to most cancer cell lines | 2.5 (≈ 7.41 µM) | 9 (≈ 26.7 µM) | 13.2 (≈ 39.1 µM) | > 20 | IC50 (HIV-1 RT(p66); [9]): 20.5 µM
6 | N=C(N)NCC(=O)Nc1ccc2c(c1)C(=O)c1ccccc1C2=O [Example 4, 2-guanidinoacetamido anthraquinone] | 14.1 (≈ 43.7 µM) | 4.9 (≈ 15.2 µM) | 9.8 (≈ 30.4 µM) | 2.9 (≈ 9 µM) | excellent effect on activity inhibition | – | – | – | – | – | – | – | – | – | – | more effective to most cancer cell lines | – | – | – | – | IC50 ZR-75-1 [3]: 3.6 µg/mL (≈ 11.2 µM); IC50 Col2 (Col2: human colon cell): 12.1 µg/mL (≈ 37.5 µM); IC50 P-388 [4]: >5 µg/mL; IC50 U373 (U373: human glioma cell): 0.88 µg/mL (≈ 2.73 µM); IC50 (HIV-1 RT(p66)): 18.9 µg/mL; activity inhibition (%) (HIV-1 RT(p66)): 99.4%; IC50 A431 [5]: 0.8 µg/mL (≈ 2.48 µM); IC50 HT [6]: 2.1 µg/mL (≈ 6.52 µM); IC50 LNCaP [7]: 12.5 µg/mL (≈ 38.8 µM); IC50 KB-V (+VLB) ([8]; with vinblastine (+VLB)): 7.5 µg/mL (≈ 23.3 µM); IC50 KB-V (−VLB) ([8]; without vinblastine (−VLB)): >20 µg/mL
7 | N=C(N)NCC(=O)Nc1ccc2c(c1N)C(=O)c1ccccc1C2=O [Example 6, 1-amino-2-guanido acetamidoanthraquinone] | – | – | – | – | excellent effect on activity inhibition | > 20 | 7.8 (≈ 23.1 µM) | > 20 | 5.9 (≈ 17.5 µM) | 6.9 (≈ 20.5 µM) | > 20 | > 5 | 2 (≈ 5.93 µM) | 99.7 | 0.9 (≈ 2.67 µM) | more effective to most cancer cell lines | 4.5 (≈ 13.3 µM) | > 20 | 7.9 (≈ 23.4 µM) | > 20 | IC50 (HIV-1 RT(p66); [9]): 119 µM
8 | N=C(N)NCC(=O)Nc1ccc2c(c1)C(=O)c1ccc(N)cc1C2=O [Example 7, 6-amino-2-guanidoacetamidoanthraquinone] | – | – | – | – | excellent effect on activity inhibition | > 20 | 3.6 (≈ 10.7 µM) | 6.8 (≈ 20.2 µM) | 1.2 (≈ 3.56 µM) | 3.3 (≈ 9.78 µM) | 3.2 (≈ 9.49 µM) | 1.1 (≈ 3.26 µM) | 0.4 (≈ 1.19 µM) | 99.7 | 0.6 (≈ 1.78 µM) | more effective to most cancer cell lines | 1.6 (≈ 4.74 µM) | 6.3 (≈ 18.7 µM) | > 20 | > 20 | IC50 (HIV-1 RT(p66); [9]): 37.1 µM
9 | N=C(N)NCC(=O)Nc1ccc2c(c1)C(=O)c1ccc(NC(=O)CNC(=N)N)cc1C2=O [Example 8, 2,6-di(guanidinoacetamido)anthraquinone] | – | – | – | – | – | 12.2 (≈ 28 µM) | 5 (≈ 11.5 µM) | 12.7 (≈ 29.1 µM) | 1.4 (≈ 3.21 µM) | 7 (≈ 16 µM) | 3.3 (≈ 7.56 µM) | > 5 | 8.6 (≈ 19.7 µM) | 29.3 | 5.8 (≈ 13.3 µM) | more effective to most cancer cell lines | 6 (≈ 13.7 µM) | 7.2 (≈ 16.5 µM) | > 20 | > 20 | –
